According to patent US20230265151A1, “GIP/GLP1 CO-AGONIST COMPOUNDS” (priority 2020, published 2023):
Like-named read-outs stand apart in the source and are kept apart here. *1 amine or outer side, *2 acyl side, *3 side chain or, on linkers, in order; H or OH if unused. Where a SMILES comes first, the peptide text is derived from it. Side-chain parts run from the residue outwards. [ ]: non-standard residue; d: D form. The star is where a group is joined. Decanoyl(10-(4-HOOC-PhO)) = O=C(O)c1ccc(OCCCCCCCCCC(=O)*)cc1; αMePhe(2-F) = C[C@](N)(Cc1ccccc1F)C(=O)O; γGlu = O=C(O)[C@H](CCC(=O)[*:2])N[*:1]; αMeY = C[C@](N)(Cc1ccc(O)cc1)C(=O)O; 4Pal = N[C@@H](Cc1ccncc1)C(=O)O; αMeL = CC(C)C[C@](C)(N)C(=O)O; Orn = NCCC[C@H](N)C(=O)O; AEEA = NCCOCCOCC(=O)O; Aib = CC(C)(N)C(=O)O

Columns and labels:
Type in all cases: cell-based
hGIPR = target: T1, hGIPR (Homo sapiens, UniProt P48546); assay: Functional cAMP formation (HTRF) in HEK-293 clonal cells expressing hGIPR, 0.1% bovine casein, without or with 1.0% human serum albumin; details: for Emax: percent of maximal response to GIP(1-42)NH2; for EC50: cAMP, 0.1% bovine casein (no human serum albumin), geometric mean
T1 construct: expressed in transfected cells
T1 sequence (P48546 22-466): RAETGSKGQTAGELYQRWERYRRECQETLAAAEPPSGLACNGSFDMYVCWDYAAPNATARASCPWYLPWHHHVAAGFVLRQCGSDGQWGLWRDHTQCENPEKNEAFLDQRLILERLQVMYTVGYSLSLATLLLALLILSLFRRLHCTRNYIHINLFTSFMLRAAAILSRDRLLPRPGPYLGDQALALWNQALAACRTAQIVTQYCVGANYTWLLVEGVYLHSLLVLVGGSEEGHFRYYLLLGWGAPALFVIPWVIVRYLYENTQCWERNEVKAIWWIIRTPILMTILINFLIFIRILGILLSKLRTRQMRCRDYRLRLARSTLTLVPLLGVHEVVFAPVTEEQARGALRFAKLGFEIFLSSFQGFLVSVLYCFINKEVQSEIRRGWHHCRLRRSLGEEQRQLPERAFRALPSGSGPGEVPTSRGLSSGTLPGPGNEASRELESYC
How it was run: (§1)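 Readings of the HTRF 665/620 nm ratio, which falls as cAMP rises, were converted to nM cAMP using a standard curve after 30 min peptide exposure at 37° C.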

hGCGR = target: T2, hGCGR (Homo sapiens, UniProt P47871); assay: Functional cAMP formation (HTRF) in HEK-293 clonal cells expressing hGCGR, 0.1% bovine casein, without or with 1.0% human serum albumin; details: cAMP, 37° C.
T2 construct: expressed in transfected cells
How it was run: as §1

hGLP-1R = hGLP-1R (Homo sapiens, UniProt P43220); assay: Functional cAMP formation (HTRF) in HEK-293 clonal cells expressing hGLP-1R, 0.1% bovine casein, without or with 1.0% human serum albumin; parameters: expressed in transfected cells; details: for Emax: percent of maximal response to GLP-1(7-36)NH2; for EC50: cAMP, 0.1% bovine casein (no human serum albumin), geometric mean
How it was run: as §1

[1] = HEK293, read-out: hGIPR Emax, % ± SEM, cAMP, 37° C., 0.1% bovine casein and 1.0% human serum albumin
[2] = HEK293, read-out: hGIPR Emax, % ± SEM, cAMP, 37° C., 0.1% bovine casein, arithmetic mean
[3] = hGIPR EC50, nM (SEM, n), 37° C.
[4] = hGCGR EC50, nM (SEM, n), 0.1% bovine casein (no human serum albumin), geometric mean
[5] = hGCGR EC50, nM (SEM, n), 0.1% bovine casein and 1.0% human serum albumin, geometric mean (SEM, n)
[6] = HEK293, read-out: hGLP-1R Emax, % ± SEM, cAMP, 37° C., 0.1% bovine casein and 1.0% human serum albumin
[7] = hGLP-1R EC50, nM (SEM, n), 37° C.

T2 sequence (P47871 26-477): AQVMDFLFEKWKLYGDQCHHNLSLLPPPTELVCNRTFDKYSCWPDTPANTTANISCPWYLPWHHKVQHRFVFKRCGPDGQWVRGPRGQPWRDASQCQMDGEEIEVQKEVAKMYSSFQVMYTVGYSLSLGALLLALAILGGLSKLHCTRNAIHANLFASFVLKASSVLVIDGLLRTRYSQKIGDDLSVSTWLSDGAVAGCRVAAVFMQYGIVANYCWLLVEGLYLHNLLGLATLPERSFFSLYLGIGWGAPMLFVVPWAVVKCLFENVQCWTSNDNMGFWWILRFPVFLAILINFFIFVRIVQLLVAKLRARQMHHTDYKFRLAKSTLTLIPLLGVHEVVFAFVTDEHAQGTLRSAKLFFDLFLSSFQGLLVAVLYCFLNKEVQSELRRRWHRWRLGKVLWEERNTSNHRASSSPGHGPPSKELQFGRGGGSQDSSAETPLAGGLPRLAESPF
Chain of hGLP-1R (P43220 24-463): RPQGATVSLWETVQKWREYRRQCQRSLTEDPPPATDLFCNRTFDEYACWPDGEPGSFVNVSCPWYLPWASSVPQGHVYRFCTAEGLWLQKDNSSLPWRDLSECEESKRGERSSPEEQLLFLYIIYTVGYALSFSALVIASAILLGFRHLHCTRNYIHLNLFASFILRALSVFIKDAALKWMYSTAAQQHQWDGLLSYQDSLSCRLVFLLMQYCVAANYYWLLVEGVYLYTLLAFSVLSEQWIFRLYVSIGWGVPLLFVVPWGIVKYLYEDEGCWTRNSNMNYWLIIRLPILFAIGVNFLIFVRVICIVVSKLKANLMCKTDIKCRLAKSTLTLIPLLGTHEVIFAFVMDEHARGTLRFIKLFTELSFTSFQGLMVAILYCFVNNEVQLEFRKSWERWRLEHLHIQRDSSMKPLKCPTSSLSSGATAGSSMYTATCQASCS

Row | SMILES | Emax (hGIPR; HEK293, cAMP, 37° C., 0.1% bovine casein and 1.0% human serum albumin, read-out: hGIPR Emax, % ± SEM) [%] | EC50 (hGIPR; 37° C., read-out: hGIPR EC50, nM (SEM, n)) [nM] | EC50 (hGCGR; 0.1% bovine casein (no human serum albumin), geometric mean, read-out: hGCGR EC50, nM (SEM, n)) [nM] | EC50 (hGCGR; 0.1% bovine casein and 1.0% human serum albumin, geometric mean (SEM, n), read-out: hGCGR EC50, nM (SEM, n)) [nM] | Emax (hGLP-1R; HEK293, cAMP, 37° C., 0.1% bovine casein and 1.0% human serum albumin, read-out: hGLP-1R Emax, % ± SEM) [%] | Emax (hGLP-1R; HEK293, cAMP, 37° C., 0.1% bovine casein, arithmetic mean, read-out: hGLP-1R Emax, % ± SEM) [%] | EC50 (hGLP-1R; 37° C., read-out: hGLP-1R EC50, nM (SEM, n)) [nM] | Emax (hGIPR; [1]) [%] | Emax (hGIPR; [2]) [%] | EC50 (hGIPR; [3]) [nM] | EC50 (hGCGR; [4]) [nM] | EC50 (hGCGR; [5]) [nM] | Emax (hGLP-1R; [6]) [%] | EC50 (hGLP-1R; [7]) [nM] | Emax (hGLP-1R; HEK293, read-out: hGLP-1R Emax, % ± SEM, cAMP, 37° C., 0.1% bovine casein, arithmetic mean) [%]
1 | CC[C@H](C)[C@H](NC(=O)[C@H](CC(C)C)NC(=O)[C@](C)(Cc1ccc(O)cc1)NC(=O)[C@@H](CCC(=O)O)NC(=O)[C@@H](NC(=O)[C@H](Cc1ccccc1)NC(=O)[C@H](CCCN)NC(=O)C(C)(C)NC(=O)[C@H](CCC(N)=O)NC(=O)[C@H](C)NC(=O)[C@H](CCCCNC(=O)COCCOCCNC(=O)COCCOCCNC(=O)CC[C@H](NC(=O)CCCCCCCCCCCCC(=O)O)C(=O)O)NC(=O)[C@H](CCCN)NC(=O)[C@H](CC(=O)O)NC(=O)[C@H](CC(C)C)NC(=O)[C@](C)(CC(C)C)NC(=O)[C@@H](NC(=O)C(C)(C)NC(=O)[C@@H](NC(=O)[C@H](CC(=O)O)NC(=O)[C@H](CO)NC(=O)[C@@H](NC(=O)[C@](C)(Cc1ccccc1F)NC(=O)[C@@H](NC(=O)CNC(=O)[C@H](CCC(=O)O)NC(=O)C(C)(C)NC(=O)[C@@H](N)Cc1ccc(O)cc1)[C@@H](C)O)[C@@H](C)O)C(C)C)[C@@H](C)CC)[C@@H](C)CC)C(=O)N[C@@H](CCCCNC(=O)COCCOCCNC(=O)COCCOCCNC(=O)CC[C@H](NC(=O)CCCCCCCCCCCCC(=O)O)C(=O)O)C(=O)NCC(=O)NCC(=O)N1CCC[C@H]1C(=O)N[C@@H](CO)C(=O)N[C@@H](CO)C(=O)NCC(=O)N[C@@H](C)C(=O)N1CCC[C@H]1C(=O)N1CCC[C@H]1C(=O)N1CCC[C@H]1C(=O)N[C@@H](CO)C(N)=O [Example 350] | 73.5 | 0.0288 | > 9950 | > 9950 | 91.4 | 95.9 | 0.202 | – | – | – | – | – | – | – | –
2 | CC[C@H](C)[C@H](NC(=O)[C@H](CC(C)C)NC(=O)[C@](C)(Cc1ccc(O)cc1)NC(=O)[C@@H](CCC(=O)O)NC(=O)[C@@H](NC(=O)[C@H](Cc1ccccc1)NC(=O)[C@H](CCCN)NC(=O)C(C)(C)NC(=O)[C@H](CCC(N)=O)NC(=O)[C@H](C)NC(=O)[C@H](CCCCNC(=O)COCCOCCNC(=O)COCCOCCNC(=O)CC[C@H](NC(=O)CCCCCCCCCOc1ccc(C(=O)O)cc1)C(=O)O)NC(=O)[C@H](CCCN)NC(=O)[C@H](CC(=O)O)NC(=O)[C@H](CC(C)C)NC(=O)[C@](C)(CC(C)C)NC(=O)[C@@H](NC(=O)C(C)(C)NC(=O)[C@H](Cc1ccc(O)cc1)NC(=O)[C@H](CC(=O)O)NC(=O)[C@H](CO)NC(=O)[C@@H](NC(=O)[C@](C)(Cc1ccccc1F)NC(=O)[C@@H](NC(=O)CNC(=O)[C@H](CCC(=O)O)NC(=O)C(C)(C)NC(=O)[C@@H](N)Cc1ccc(O)cc1)[C@@H](C)O)[C@@H](C)O)[C@@H](C)CC)[C@@H](C)CC)C(=O)N[C@@H](CCCCNC(=O)COCCOCCNC(=O)COCCOCCNC(=O)CC[C@H](NC(=O)CCCCCCCCCOc1ccc(C(=O)O)cc1)C(=O)O)C(=O)NCC(=O)NCC(=O)N1CCC[C@H]1C(=O)N[C@@H](CO)C(=O)N[C@@H](CO)C(=O)NCC(=O)N[C@@H](C)C(=O)N1CCC[C@H]1C(=O)N1CCC[C@H]1C(=O)N1CCC[C@H]1C(=O)N[C@@H](CO)C(N)=O [Example 352] (H-Y[Aib]EGT[αMePhe(2-F)]TSDY[Aib]I[αMeL]LD[Orn]K([AEEA-AEEA-γGlu-Decanoyl(10-(4-HOOC-PhO))])AQ[Aib][Orn]FI[dE][αMeY]LIK([AEEA-AEEA-γGlu-Decanoyl(10-(4-HOOC-PhO))])GGPSSGAPPPS-NH2) | – | – | – | – | – | – | – | 71.3 | 98.3 | 0.0106 | > 9950 | > 9950 | 93.5 | 0.262 | –
3 | CC[C@H](C)[C@H](NC(=O)[C@H](CC(C)C)NC(=O)[C@](C)(Cc1ccc(O)cc1)NC(=O)[C@@H](CCC(=O)O)NC(=O)[C@@H](NC(=O)[C@H](Cc1ccccc1)NC(=O)[C@H](CCCN)NC(=O)C(C)(C)NC(=O)[C@H](CCC(N)=O)NC(=O)[C@H](C)NC(=O)[C@H](CCCCNC(=O)COCCOCCNC(=O)COCCOCCNC(=O)CC[C@H](NC(=O)CCCCCCCCCOc1ccc(C(=O)O)cc1)C(=O)O)NC(=O)[C@H](CCCN)NC(=O)[C@H](CC(=O)O)NC(=O)[C@H](CC(C)C)NC(=O)[C@](C)(CC(C)C)NC(=O)[C@@H](NC(=O)C(C)(C)NC(=O)[C@@H](NC(=O)[C@H](CC(=O)O)NC(=O)[C@H](CO)NC(=O)[C@@H](NC(=O)[C@](C)(Cc1ccccc1F)NC(=O)[C@@H](NC(=O)CNC(=O)[C@H](CCC(=O)O)NC(=O)C(C)(C)NC(=O)[C@@H](N)Cc1ccc(O)cc1)[C@@H](C)O)[C@@H](C)O)C(C)C)[C@@H](C)CC)[C@@H](C)CC)C(=O)N[C@@H](CCCCNC(=O)COCCOCCNC(=O)COCCOCCNC(=O)CC[C@H](NC(=O)CCCCCCCCCOc1ccc(C(=O)O)cc1)C(=O)O)C(=O)NCC(=O)NCC(=O)N1CCC[C@H]1C(=O)N[C@@H](CO)C(=O)N[C@@H](CO)C(=O)NCC(=O)N[C@@H](C)C(=O)N1CCC[C@H]1C(=O)N1CCC[C@H]1C(=O)N1CCC[C@H]1C(=O)N[C@@H](CO)C(N)=O [Example 353] | – | – | – | – | – | – | – | 84.8 | 98.2 | 0.0249 | > 9950 | > 9950 | 92.5 | 0.203 | 98
4 | CC[C@H](C)[C@H](NC(=O)[C@H](CCCN)NC(=O)[C@H](CC(=O)O)NC(=O)[C@H](CC(C)C)NC(=O)[C@](C)(CC(C)C)NC(=O)[C@@H](NC(=O)C(C)(C)NC(=O)[C@H](Cc1ccncc1)NC(=O)[C@H](CC(=O)O)NC(=O)[C@H](CO)NC(=O)[C@@H](NC(=O)[C@](C)(Cc1ccccc1F)NC(=O)[C@@H](NC(=O)CNC(=O)[C@H](CCC(=O)O)NC(=O)C(C)(C)NC(=O)[C@@H](N)Cc1ccc(O)cc1)[C@@H](C)O)[C@@H](C)O)[C@@H](C)CC)C(=O)N[C@@H](C)C(=O)N[C@@H](CCC(N)=O)C(=O)NC(C)(C)C(=O)N[C@@H](CCCN)C(=O)N[C@@H](Cc1ccccc1)C(=O)N[C@H](C(=O)N[C@@H](CCCCNC(=O)COCCOCCNC(=O)COCCOCCNC(=O)CC[C@H](NC(=O)CCCCCCCCCOc1ccc(C(=O)O)cc1)C(=O)O)C(=O)N[C@@](C)(Cc1ccc(O)cc1)C(=O)N[C@@H](CC(C)C)C(=O)N[C@H](C(=O)N[C@@H](CCCCNC(=O)COCCOCCNC(=O)COCCOCCNC(=O)CC[C@H](NC(=O)CCCCCCCCCOc1ccc(C(=O)O)cc1)C(=O)O)C(=O)NCC(=O)NCC(=O)N1CCC[C@H]1C(=O)N[C@@H](CO)C(=O)N[C@@H](CO)C(=O)NCC(=O)N[C@@H](C)C(=O)N1CCC[C@H]1C(=O)N1CCC[C@H]1C(=O)N1CCC[C@H]1C(=O)N[C@@H](CO)C(N)=O)[C@@H](C)CC)[C@@H](C)CC [Example 354] (H-Y[Aib]EGT[αMePhe(2-F)]TSD[4Pal][Aib]I[αMeL]LD[Orn]IAQ[Aib][Orn]FIK([AEEA-AEEA-γGlu-Decanoyl(10-(4-HOOC-PhO))])[αMeY]LIK([AEEA-AEEA-γGlu-Decanoyl(10-(4-HOOC-PhO))])GGPSSGAPPPS-NH2) | – | – | – | – | – | – | – | 67.5 | 95.4 | 0.0249 | > 9950 | > 9950 | 95.9 | 0.505 | –
